Measurements published in US9504676B2, “Molecules inhibiting a metabolic pathway involving the Syk protein tyrosine kinase and method for identifying said molecules” (CENTRE NATIONAL DE LA RECHERCHE SCIENTIFIQUE, priority 2008, dated 2016).

Test system: PLC-γ with LAT
Experiment: Association of PLC-γ with LAT (immunoprecipitation)
Type: cell-based, rat
Conditions: dose-dependent
Description: Binding of Btk and Vav with SLP-76 is critical for regulating PLC-γ activity on the membrane, calcium mobilisation and granule exocytosis^27, 28.
• 1) Chemical products and antibodies. A chemical bank of 3000 molecules (a varied subset) was acquired from ChemBridge, Inc. (San Diego, Calif.). Stocks of solutions of small molecules were prepared at a rate of 10 mM in DMSO (dimethylsulphoxide), except for C-13 (methyl 2-{5-[(3-benzyl-4-oxo-2-thioxo-1,3-thiazolidin-5-ylidene)methyl]-2-furyl}benzoate, ChemBridge ID No. 6197026) prepared in DMF (dimethylformamide). Unless specified otherwise, all the reagents were supplied by Sigma. Dinitrophenyl (DNP) hapten was acquired from Calbiochem. […] The binding of G4G11 with Syk was assessed by adding the 9E10 monoclonal antibody conjugated with HRP detecting the amino acid sequence EQKLISEEDLN of human c-myc protein located at the C-terminal end of the scFv fragment. To generate Syk mutants, targeted mutagenesis was used on GST:Syk 6-242 protein and the binding of G4G11 with the mutants was assessed in the presence of 5 μM of C-13. • 3) Cells, culture conditions and functional tests. […] The level of β-hexosaminidase released was measured 10 min later and the TNF-α titration was performed by means of a cytotoxicity test on L929 cells as described previously^10, 3 hours after stimulation. […]

Compound: COC(=O)c1ccccc1-c1ccc(/C=C2/SC(=S)N(Cc3ccccc3)C2=O)o1 [Molecule C-13, methyl 2-{5-[(3-benzyl-4-oxo-2-thioxo-1,3-thiazolidin-5-ylidene)methyl]-2-furyl}benzoate]
- association of PLC-γ with LAT: inhibited
